Results published in patent US8541585B2, “N-acyl cyclic amine derivative or pharmaceutically acceptable salt thereof” (Dainippon Sumitomo Pharma Co., Ltd., priority 2010, dated 2013).

Key:
human α1D receptor = target: T1, human α1D receptor (Homo sapiens, UniProt P25100); assay: Adrenaline α1D receptor binding assay ([3H]-prazosin); settings: 100 nM test drug; [3H]-prazosin 0.6 nM; human α1D receptor-expressing CHO cell membrane; read-out: BINDING INHIBITION RATE (%) α1D 100 nM
T1 construct: expressed in transfected cells; host or cells: CHO cells (membrane preparation)
T1 sequence (P25100 1-572): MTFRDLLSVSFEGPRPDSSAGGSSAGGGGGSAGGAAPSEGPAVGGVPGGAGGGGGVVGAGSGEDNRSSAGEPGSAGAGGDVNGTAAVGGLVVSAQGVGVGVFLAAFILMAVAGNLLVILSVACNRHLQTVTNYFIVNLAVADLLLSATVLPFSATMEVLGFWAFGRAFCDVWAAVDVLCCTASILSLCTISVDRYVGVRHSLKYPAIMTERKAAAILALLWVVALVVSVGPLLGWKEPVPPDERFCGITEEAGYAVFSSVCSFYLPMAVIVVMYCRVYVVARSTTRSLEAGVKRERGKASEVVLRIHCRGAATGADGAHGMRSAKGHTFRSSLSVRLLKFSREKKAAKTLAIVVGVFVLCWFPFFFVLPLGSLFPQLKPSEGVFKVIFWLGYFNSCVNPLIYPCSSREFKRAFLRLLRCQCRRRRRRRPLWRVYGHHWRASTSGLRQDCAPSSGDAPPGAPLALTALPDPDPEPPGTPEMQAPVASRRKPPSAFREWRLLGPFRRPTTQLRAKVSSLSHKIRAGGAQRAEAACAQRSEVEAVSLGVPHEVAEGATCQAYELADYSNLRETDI
Method: (4) Adrenaline α1D Receptor Binding Assay
After a reaction in a total volume of 200 μL of 50 mM Tris-HCl (pH=7.6) buffer solution containing 50 μL of [^3H]-prazosin (final concentration 0.6 nM), 1 μL of test drug in DMSO, and 149 μL of human α1D receptor-expressing CHO cell membrane sample, human α1D receptor binding activity of [^3H]-prazosin was measured. The reaction solution let stand for 30 minutes at room temperature, and then it was quickly added on a glass fiber filter plate (Multiscreen FB, Millipore inc.) coated with 0.3% polyethyleneimine (PEI) and filtered under reduced pressure. The glass fiber filter was washed with 200 μL of ice-cooled 50 mM Tris-HCl (pH=7.6) twice, repeatedly filtered under reduced pressure, and then transferred to a vial containing 4 mL of Ecoscint A (National Diagnostics inc.). The residual radioactivity on the glass fiber filter was measured by a liquid scintillation counter. Nonspecific binding was measured in the presence of 1 μM of prazosin, and [^3H]-prazosin binding inhibition rate in the presence of 100 nM of test drug was determined.

human 5-HT6 receptor = target: T2, human 5-HT6 receptor (Homo sapiens, UniProt P50406); assay: Serotonin 5-HT6 receptor binding assay ([3H]-clozapine); settings: 100 nM test drug; [3H]-clozapine 2 nM; human 5-HT6 receptor-expressing CHO cell membrane; read-out: BINDING INHIBITION RATE (%) 5HT6 100 nM
T2 construct: expressed in transfected cells; host or cells: CHO cells (membrane preparation)
Method: (3) Serotonin 5-HT6 Receptor Binding Assay
After a reaction in a total volume of 200 μL of 50 mM Tris-HCl (pH=7.6), 4 mM CaCl2, and 0.5 mM EDTA buffer solution containing 50 μL of [^3H]-clozapine (final concentration 2 nM), 1 μL of test drug in DMSO, and 149 μL of human 5-HT6 receptor-expressing CHO cell membrane sample, human 5-HT6 receptor binding activity of [^3H]-clozapine was measured. The reaction solution let stand for 40 minutes at room temperature, and then it was quickly added on a glass fiber filter plate (Multiscreen FB, Millipore inc.) coated with 0.3% polyethyleneimine (PEI) and filtered under reduced pressure. The glass fiber filter was washed with 200 μL of ice-cooled 50 mM Tris-HCl (pH=7.6) twice, repeatedly filtered under reduced pressure, and then transferred to a vial containing 4 mL of Ecoscint A (National Diagnostics inc.). The residual radioactivity on the glass fiber filter was measured by a liquid scintillation counter. Nonspecific binding was measured in the presence of 10 μM of SB-258585, and [^3H]-clozapine binding inhibition rate in the presence of 100 nM of test drug was determined.

human 5-HT2A receptor = target: T3, human 5-HT2A receptor (Homo sapiens, UniProt P28223); assay: Serotonin 5-HT2A receptor binding assay ([3H]-ketanserin); settings: [3H]-ketanserin 1 nM, human 5-HT2A receptor-expressing CHO cell membrane; for inhibition at 0.001 µM: 1 nM test drug, read-out: BINDING INHIBITION RATE (%) 5HT2A 1 nM; for inhibition at 0.01 µM: 10 nM test drug, read-out: BINDING INHIBITION RATE (%) 5HT2A 10 nM
T3 construct: expressed in transfected cells; host or cells: CHO cells (membrane preparation)
Method: (2) Serotonin 5-HT2A Receptor Binding Assay
5-HT2A receptor binding assay was performed in reference to a method described by Hirose et al. (Japan. J. Pharmacol., 53, 321-329, 1990). After a reaction in a total volume of 200 μL of 50 mM Tris-HCl (pH=7.6) buffer solution containing 50 μL of [^3H]-ketanserin (final concentration 1 nM), 1 μL of test drug in DMSO, and 149 μL of human 5-HT2A receptor-expressing CHO cell membrane sample, human 5-HT2A receptor binding activity of [^3H]-ketanserin was measured. The reaction solution let stand for 15 minutes at 37° C., and then it was quickly added on a glass fiber filter plate (Multiscreen FB, Millipore inc.) coated with 0.05% Brij 35 and filtered under reduced pressure. The glass fiber filter was washed with 200 μL of ice-cooled 50 mM Tris-HCl (pH=7.6) twice, repeatedly filtered under reduced pressure, and then transferred to a vial containing 4 mL of Ecoscint A (National Diagnostics inc.). The residual radioactivity on the glass fiber filter was measured by a liquid scintillation counter. Nonspecific binding was measured in the presence of 10 μM of MDL-100907, and [^3H]-ketanserin binding inhibition rate in the presence of 1 nM or 10 nM of test drug was determined.

human D2L receptor = human D2L receptor (Homo sapiens, UniProt P14416); assay: Dopamine D2L receptor binding assay ([3H]-spiperone); settings: 10 nM test drug; [3H]-spiperone 0.5 nM; human D2L receptor-expressing CHO cell membrane; read-out: BINDING INHIBITION RATE (%) D2L 10 nM
Method: (1) Dopamine D2L Receptor Binding Assay
D2L receptor binding assay was performed in reference to a method described by Hirose et al. (Japan. J. Pharmacol., 53, 321-329, 1990). After a reaction in a total volume of 200 μL of 50 mM Tris-HCl (pH=7.6) buffer solution containing 50 μL of [^3H]-spiperone (final concentration 0.5 nM), 1 μL of test drug in DMSO, and 149 μL of human D2L receptor-expressing CHO cell membrane sample, human D2L receptor binding activity of [^3H]-spiperone was measured. The reaction solution let stand for 60 minutes at room temperature, and then it was quickly added on a glass fiber filter plate (Multiscreen FB, Millipore inc.) coated with 0.3% polyethyleneimine (PEI) and filtered under reduced pressure. The glass fiber filter was washed with 200 μL of ice-cooled 50 mM Tris-HCl (pH=7.6) twice, repeatedly filtered under reduced pressure, and then transferred to a vial containing 4 mL of Ecoscint A (National Diagnostics inc.). The residual radioactivity on the glass fiber filter was measured by a liquid scintillation counter. Nonspecific binding was measured in the presence of 10 μM of spiperone, and [^3H]-spiperone binding inhibition rate in the presence of 10 nM of test drug was determined. The larger binding inhibition rate (%) means that test drug has the higher binding affinity for human D2L receptor.

T2 sequence (P50406 whole entry): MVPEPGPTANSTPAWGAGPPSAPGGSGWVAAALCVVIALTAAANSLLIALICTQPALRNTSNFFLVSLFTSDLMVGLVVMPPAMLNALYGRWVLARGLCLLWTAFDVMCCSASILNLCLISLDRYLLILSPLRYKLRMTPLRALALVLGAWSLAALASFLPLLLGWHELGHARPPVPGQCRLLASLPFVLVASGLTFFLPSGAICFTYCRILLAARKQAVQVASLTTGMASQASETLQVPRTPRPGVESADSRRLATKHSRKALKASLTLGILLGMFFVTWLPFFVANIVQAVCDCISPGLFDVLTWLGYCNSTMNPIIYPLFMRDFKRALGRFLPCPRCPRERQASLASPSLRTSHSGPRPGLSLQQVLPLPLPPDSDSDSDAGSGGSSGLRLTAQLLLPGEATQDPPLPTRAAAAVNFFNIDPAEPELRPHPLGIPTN
T3 sequence (P28223 whole entry): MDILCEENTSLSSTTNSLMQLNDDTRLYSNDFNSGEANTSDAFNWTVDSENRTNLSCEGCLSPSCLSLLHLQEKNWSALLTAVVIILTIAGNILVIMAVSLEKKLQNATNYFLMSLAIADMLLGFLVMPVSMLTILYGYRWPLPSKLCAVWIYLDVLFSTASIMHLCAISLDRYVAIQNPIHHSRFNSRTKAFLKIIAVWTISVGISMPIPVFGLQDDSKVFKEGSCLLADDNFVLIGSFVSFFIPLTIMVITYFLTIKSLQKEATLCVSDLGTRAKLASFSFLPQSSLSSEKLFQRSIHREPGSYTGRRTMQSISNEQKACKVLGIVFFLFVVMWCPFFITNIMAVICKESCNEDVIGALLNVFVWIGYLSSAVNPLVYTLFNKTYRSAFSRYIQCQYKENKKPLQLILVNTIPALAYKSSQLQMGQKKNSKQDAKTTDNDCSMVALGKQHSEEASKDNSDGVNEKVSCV
Chain of human D2L receptor (P14416 whole entry): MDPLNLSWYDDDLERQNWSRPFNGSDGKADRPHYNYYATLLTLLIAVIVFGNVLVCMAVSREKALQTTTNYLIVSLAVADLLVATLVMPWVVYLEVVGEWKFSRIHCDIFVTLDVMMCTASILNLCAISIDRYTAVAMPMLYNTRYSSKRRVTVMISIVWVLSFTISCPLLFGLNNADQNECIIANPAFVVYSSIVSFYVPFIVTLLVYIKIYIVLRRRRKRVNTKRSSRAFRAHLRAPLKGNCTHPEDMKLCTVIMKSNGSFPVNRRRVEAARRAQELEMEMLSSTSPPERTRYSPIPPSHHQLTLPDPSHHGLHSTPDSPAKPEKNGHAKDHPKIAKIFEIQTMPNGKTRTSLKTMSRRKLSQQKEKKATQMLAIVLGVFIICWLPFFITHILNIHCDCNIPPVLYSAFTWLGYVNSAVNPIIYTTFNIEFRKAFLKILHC

In the case of `Cc1ccc2cc(C(=O)N3CCC[C@H]3CCN3CCN(c4n[nH]c5ccccc45)CC3)[nH]c2c1` [Example 2, (S)-(2-(2-(4-(1H-Indazol-3-yl)piperazin-1-yl)ethyl)pyrrolidin-1-yl)(6-methyl-1H-indol-2-yl)methanone], the inhibition at 0.1 µM (human α1D receptor) is reported as 63%, the inhibition at 0.1 µM (human 5-HT6 receptor) is reported as 95% and the inhibition at 0.001 µM (human 5-HT2A receptor) is reported as 65%. It also gave an inhibition at 0.01 µM (human D2L receptor) of 73%.

For `Cc1ccc2cc(C(=O)N3CCC[C@H]3CCN3CCC(N4CCc5cc(F)ccc54)CC3)[nH]c2c1` [Example 3], the inhibition at 0.1 µM (human α1D receptor) was 74%, the inhibition at 0.1 µM (human 5-HT6 receptor) was 94% and the inhibition at 0.001 µM (human 5-HT2A receptor) was 65%. It also gave an inhibition at 0.01 µM (human D2L receptor) of 80%.

`O=C(/C=C/c1ccc2c(c1)OCO2)N1CCC[C@@H](CCN2CCN(c3nsc4ccccc34)CC2)C1` [Example 4, (S,E)-3-(Benzo[d][1,3]-5-dioxolyl)-1-(3-(2-(4-(benzo[d]isothiazo-3-yl)piperazin-1-yl)ethyl)piperidin-1-yl)-2-propen-1-one] showed an inhibition at 0.1 µM (human α1D receptor) of 30%, an inhibition at 0.1 µM (human 5-HT6 receptor) of 65% and an inhibition at 0.01 µM (human 5-HT2A receptor) of 96%. The inhibition at 0.01 µM (human D2L receptor) was 73%.

Work on `Cc1ccc2cc(C(=O)N3CCC[C@H]3CCN3CCC(c4c[nH]c5cc(F)ccc45)CC3)[nH]c2c1` [Example 5] yielded an inhibition at 0.1 µM (human α1D receptor) of 70%, an inhibition at 0.1 µM (human 5-HT6 receptor) of 98% and an inhibition at 0.001 µM (human 5-HT2A receptor) of 72%. For the same compound, the inhibition at 0.01 µM (human D2L receptor) was 83%.

For `Cc1ccc2cc(C(=O)N3CCC[C@H]3CCN3CCC(c4noc5cc(F)ccc45)CC3)[nH]c2c1` [Example 6, (S)-(2-(2-(4-(6-Fluorobenzo[d]isoxazol-3-yl)piperidin-1-yl)ethyl)pyrrolidin-1-yl)(6-methyl-1H-indol-2-yl)methanone], the inhibition at 0.1 µM (human α1D receptor) was 71%, the inhibition at 0.1 µM (human 5-HT6 receptor) was 94% and the inhibition at 0.001 µM (human 5-HT2A receptor) was 61%. The inhibition at 0.01 µM (human D2L receptor) was 91%.

In the case of `O=C(c1cc2cc(F)ccc2[nH]1)N1CCOC[C@H]1CCN1CCC(c2c[nH]c3ccccc23)CC1` [Example 7, (R)-(3-(2-(4-(1H-Indol-3-yl)piperidin-1-yl)ethyl)morpholino)(5-fluoro-1H-indol-2-yl)methanone], the inhibition at 0.1 µM (human α1D receptor) is reported as 86%, the inhibition at 0.1 µM (human 5-HT6 receptor) is reported as 97% and the inhibition at 0.01 µM (human 5-HT2A receptor) is reported as 100%. For the same compound, the inhibition at 0.01 µM (human D2L receptor) was 85%.

Compound `Cc1ccc2[nH]c(C(=O)N3CCC[C@H]3CCN3CCC(c4coc5ccccc45)CC3)cc2c1` [Example 8, (S)-(2-(2-(4-(Benzofuran-3-yl)piperidin-1-yl)ethyl)pyrrolidin-1-yl)(5-methyl-1H-indol-2-yl)methanone] has an inhibition at 0.1 µM (human α1D receptor) of 62%, an inhibition at 0.1 µM (human 5-HT6 receptor) of 93% and an inhibition at 0.01 µM (human 5-HT2A receptor) of 92%. It also gave an inhibition at 0.01 µM (human D2L receptor) of 76%.

In the case of `O=C(/C=C/c1ccc2c(c1)OCO2)N1CCCC[C@H]1CCN1CCN(c2cccc3ccccc23)CC1` [Example 9], the inhibition at 0.1 µM (human α1D receptor) is reported as 5%, the inhibition at 0.1 µM (human 5-HT6 receptor) is reported as 61% and the inhibition at 0.01 µM (human 5-HT2A receptor) is reported as 94%. It also gave an inhibition at 0.01 µM (human D2L receptor) of 32%.

For `Cc1ccc2cc(C(=O)N3CCC[C@H]3CCN3CCC(n4ccc5ccc(F)cc54)CC3)[nH]c2c1` [Example 10], the inhibition at 0.1 µM (human α1D receptor) was 12%, the inhibition at 0.1 µM (human 5-HT6 receptor) was 74% and the inhibition at 0.001 µM (human 5-HT2A receptor) was 37%. It also gave an inhibition at 0.01 µM (human D2L receptor) of 52%.
